Test results reported in ChEMBL document CHEMBL2074036, “Renal transport of organic compounds mediated by mouse organic anion transporter 3 (mOat3): further substrate specificity of mOat3” (Drug Metab Dispos, 2004).

T1: Oat3 (organic anion transporter 3) (Mus musculus, UniProt O88909)
T1 sequence (O88909 whole entry): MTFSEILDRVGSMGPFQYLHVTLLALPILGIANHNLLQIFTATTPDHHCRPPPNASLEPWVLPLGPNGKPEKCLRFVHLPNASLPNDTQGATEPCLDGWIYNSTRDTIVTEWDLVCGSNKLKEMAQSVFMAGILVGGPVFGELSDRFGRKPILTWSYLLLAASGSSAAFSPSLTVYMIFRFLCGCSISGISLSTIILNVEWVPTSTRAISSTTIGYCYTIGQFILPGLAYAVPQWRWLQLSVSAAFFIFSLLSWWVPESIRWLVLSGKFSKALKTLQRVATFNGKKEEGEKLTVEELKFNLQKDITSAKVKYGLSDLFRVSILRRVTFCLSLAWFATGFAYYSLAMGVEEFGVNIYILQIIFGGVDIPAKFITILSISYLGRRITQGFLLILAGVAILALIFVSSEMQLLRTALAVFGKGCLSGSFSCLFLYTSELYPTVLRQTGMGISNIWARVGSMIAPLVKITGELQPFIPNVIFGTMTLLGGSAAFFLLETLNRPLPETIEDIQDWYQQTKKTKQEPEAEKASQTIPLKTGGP

T2: Organic anion transporter 3 (Mus musculus, UniProt O88909)
T2 sequence (O88909 whole entry): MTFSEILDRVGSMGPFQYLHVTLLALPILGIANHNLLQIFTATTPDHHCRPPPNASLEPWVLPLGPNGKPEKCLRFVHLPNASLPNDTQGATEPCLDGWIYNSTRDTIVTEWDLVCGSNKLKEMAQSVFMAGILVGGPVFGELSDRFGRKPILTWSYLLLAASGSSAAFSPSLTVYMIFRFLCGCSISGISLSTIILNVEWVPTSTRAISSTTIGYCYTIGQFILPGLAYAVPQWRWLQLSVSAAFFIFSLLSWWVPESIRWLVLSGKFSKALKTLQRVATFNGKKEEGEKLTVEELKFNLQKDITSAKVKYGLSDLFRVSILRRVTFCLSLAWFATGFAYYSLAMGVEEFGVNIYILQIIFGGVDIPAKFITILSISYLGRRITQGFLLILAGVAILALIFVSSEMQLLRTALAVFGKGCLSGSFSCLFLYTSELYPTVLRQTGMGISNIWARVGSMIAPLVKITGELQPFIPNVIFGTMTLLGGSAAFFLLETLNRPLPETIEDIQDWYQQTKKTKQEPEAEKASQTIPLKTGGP

B1: Organic anion transporter 3 (Mus musculus) (protein)
chain: MTFSEILDRVGSMGPFQYLHVTLLALPILGIANHNLLQIFTATTPDHHCRPPPNASLEPWVLPLGPNGKPEKCLRFVHLPNASLPNDTQGATEPCLDGWIYNSTRDTIVTEWDLVCGSNKLKEMAQSVFMAGILVGGPVFGELSDRFGRKPILTWSYLLLAASGSSAAFSPSLTVYMIFRFLCGCSISGISLSTIILNVEWVPTSTRAISSTTIGYCYTIGQFILPGLAYAVPQWRWLQLSVSAAFFIFSLLSWWVPESIRWLVLSGKFSKALKTLQRVATFNGKKEEGEKLTVEELKFNLQKDITSAKVKYGLSDLFRVSILRRVTFCLSLAWFATGFAYYSLAMGVEEFGVNIYILQIIFGGVDIPAKFITILSISYLGRRITQGFLLILAGVAILALIFVSSEMQLLRTALAVFGKGCLSGSFSCLFLYTSELYPTVLRQTGMGISNIWARVGSMIAPLVKITGELQPFIPNVIFGTMTLLGGSAAFFLLETLNRPLPETIEDIQDWYQQTKKTKQEPEAEKASQTIPLKTGGP

Columns and labels:
[1] = biological target: T1, Oat3 (organic anion transporter 3); assay: TP_TRANSPORTER: inhibition of PHA uptake (PHA: 1000uM) in mOat3-expressing oocytes; type: functional, cell-based, Oocyte; design: scale not given: the % may be the effect or the level left; details: probe PHA (1000 uM)
[2] = biological target: T2, Organic anion transporter 3; assay: (§1) TP_TRANSPORTER: uptake in mOat3-expressing oocytes; type: functional, cell-based; details: oocyte
[3] = biological target: T1, Oat3 (organic anion transporter 3); assay: TP_TRANSPORTER: inhibition of PHA uptake (PHA: 1000uM) by P-aminohippuric acid at a concentration of 10uM in mOat3-expressing oocytes; type: functional, cell-based, Oocyte; design: scale not given: the % may be the effect or the level left; details: probe PHA (1000 uM), read-out: Activity
[4] = substrate: Sc1ncnc2nc[nH]c12; assay: as §1; type: functional, cell-based, Oocyte
[5] = substrate: C[N+](C)(C)C[C@H](O)CC(=O)[O-]; assay: as §1; type: functional, cell-based, Oocyte
[6] = substrate: O=c1[nH]cc(F)c(=O)[nH]1; assay: as §1; type: functional, cell-based, Oocyte

| Molecule | Activity [1] | Activity [2] | also measured |
| --- | --- | --- | --- |
| CCOC(=O)[C@H](CCc1ccccc1)N[C@@H](C)C(=O)N1CCC[C@H]1C(=O)O | 45% | – | – |
| Oc1ncnc2[nH]ncc12 [ALLOPURINOL] | – | substrate [] | – |
| Nc1ccc(C(=O)NCC(=O)O)cc1 [AMINOHIPPURIC ACID] | – | substrate [] | activity at 10 µM [3]: 20% |
| CN/C(=N/CCSCc1nc[nH]c1C)NC#N [CIMETIDINE] | 65% | – | – |
| CCCCC[C@H](O)/C=C/[C@H]1[C@H](O)CC(=O)[C@@H]1C/C=C\CCCC(=O)O [DINOPROSTONE] | – | substrate [] | – |
| CCCCC[C@H](O)/C=C/[C@@H]1[C@@H](C/C=C\CCCC(=O)O)[C@@H](O)C[C@H]1O [DINOPROST] | – | substrate [] | – |
| C[C@]12CC[C@@H]3c4ccc(OS(=O)(=O)O)cc4CC[C@H]3[C@@H]1CCC2=O [ESTRONE SULFURIC ACID] | – | substrate [] | – |
| CC(C)Cc1ccc(C(C)C(=O)O)cc1 (stereo not drawn) [IBUPROFEN] | 80% | – | – |
| CN1C(C(=O)Nc2ccccn2)=C(O)c2sccc2S1(=O)=O [TENOXICAM] | 55% | – | – |
| B1 | – | – | Km [4]: 4.01 µM; Km [5]: 0.0619 µM; Km [6]: 0.0539 µM |
